Structures are written as SMILES.

Chain of human plasma kallikrein (P03952 391-638): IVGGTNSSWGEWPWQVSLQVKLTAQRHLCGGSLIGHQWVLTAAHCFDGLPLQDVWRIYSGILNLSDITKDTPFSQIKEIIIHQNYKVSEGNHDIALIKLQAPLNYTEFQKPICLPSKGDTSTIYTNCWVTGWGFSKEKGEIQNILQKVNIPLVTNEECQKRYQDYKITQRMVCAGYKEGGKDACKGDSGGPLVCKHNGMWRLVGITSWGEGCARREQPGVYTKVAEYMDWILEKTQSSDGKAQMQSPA
Chain of human plasma kallikrein (P03952 20-390 partner): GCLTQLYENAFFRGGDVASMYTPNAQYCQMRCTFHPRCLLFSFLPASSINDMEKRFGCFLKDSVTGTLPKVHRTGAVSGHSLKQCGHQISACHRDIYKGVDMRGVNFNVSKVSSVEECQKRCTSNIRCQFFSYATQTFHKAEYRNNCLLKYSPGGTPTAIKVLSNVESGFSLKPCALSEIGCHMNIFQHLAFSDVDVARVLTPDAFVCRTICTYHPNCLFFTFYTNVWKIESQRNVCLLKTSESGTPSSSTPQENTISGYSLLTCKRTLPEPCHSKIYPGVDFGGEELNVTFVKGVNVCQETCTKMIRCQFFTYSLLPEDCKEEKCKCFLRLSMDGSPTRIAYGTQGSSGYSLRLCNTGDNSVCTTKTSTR

The assay has as its target human plasma kallikrein (Homo sapiens (Human), UniProt P03952). Nature of the assay: Plasma Kallikrein Activity Assay (chromogenic substrate S2302). The note with it: 2 nM kallikrein, 80 μM S2302, 30° C., pH 7.8; Cheng-Prusoff. Format: biochemical. The procedure:
Plasma Kallikrein Activity Assay.
The effect of compounds of the invention on human plasma kallikrein activity was determined using the chromogenic substrates (DiaPharma Group, Inc., West Chester, Ohio, USA). In these experiments, 2 nM kallikrein (Enzyme Research Laboratories, South Bend, Ind., USA) was incubated with 80 μM S2302 (H-D-Pro-Phe-Arg-p-nitroaniline) in the absence or presence of increasing concentrations of compounds of the invention in a final volume of 200 μL Tris-HCl buffer (200 mM NaCl; 2.5 mM CaCl2; 50 mM Tris-HCl, pH 7.8).
After incubation at 30° C., the activity of kallikrein was measured as a change in absorbance at OD 405 nm using BioTek PowerWave X340 Microplate Reader (Winooski, Vt., USA). Data were analyzed using SigmaPlot software (Systat Software, Inc., San Jose, Calif., USA) (Four Parameter Logistic Curve). Ki values for the inhibitors were determined using the Cheng-Prusoff equation (Biochem. Pharmacol. 1973, 22, 3099).
Turning to `O=C(Nc1cc(C(NCC2CC2)c2ccccc2)ccc1F)[C@H]1C[C@@H](O)CN1C(=O)Nc1ccc(Cl)cc1` (stereo partly drawn) [Compound 1p, (2R,4R)-N1-(4-chlorophenyl)-N2-(5-(((cyclopropylmethyl)amino)(phenyl)methyl)-2-fluorophenyl)-4-hydroxypyrrolidine-1,2-dicarboxamide], the Ki (as a rule, the equilibrium dissociation constant of an inhibitor or competing ligand from its target) was more than 100 nM.

Molecule `O=C(Nc1ccccc1F)[C@H]1C[C@@H](O)CN1C(=O)Nc1ccc(Cl)cc1` [Compound 2a, (2R,4R)-N1-(4-chlorophenyl)-N2-(2-fluorophenyl)-4-hydroxypyrrolidine-1,2-dicarboxamide] had a Ki of more than 100 nM.

In turn, `O=C(Nc1cc(C(NCC2CC2)c2ccccc2)ccc1F)[C@H]1C[C@@H](O)CN1C(=O)Nc1ccc(Cl)cc1` (stereo partly drawn) [Compound 3a, (2R,4R)-N1-(4-chlorophenyl)-N2-(5-((+)-(cyclopropylmethylamino)(phenyl)methyl)-2-fluorophenyl)-4-hydroxypyrrolidine-1,2-dicarboxamide] showed a Ki of 50 to 100 nM.

`CC(C)(C)[S@@+]([O-])NC(CCC1CC1)(c1cccc(C#N)c1)c1ccc(F)c(NC(=O)[C@H]2C[C@@H](O)CN2C(=O)Nc2ccc(Cl)cc2)c1` (stereo partly drawn) [Compound 4f, (2R,4R)-N1-(4-chlorophenyl)-N2-(5-((−)-1-(3-cyanophenyl)-3-cyclopropyl-1-((R)-1,1-dimethylethylsulfinamido)propyl)-2-fluorophenyl)-4-hydroxypyrrolidine-1,2-dicarboxamide] had a Ki of 50 to 100 nM.

The molecule `N#Cc1cccc(C(N)(CCC2CC2)c2ccc(F)c(NC(=O)[C@H]3C[C@@H](O)CN3C(=O)Nc3ccc(Cl)cc3)c2)c1` (stereo partly drawn) [Compound 4g, (2R,4R)-N2-(5-((+)-1-amino-1-(3-cyanophenyl)-3-cyclopropylpropyl)-2-fluorophenyl)-N1-(4-chlorophenyl)-4-hydroxypyrrolidine-1,2-dicarboxamide] returned an inhibitory constant (Ki) of 50 to 100 nM.

In the case of `CC(C)(C)[S@@+]([O-])NC(CCC1CC1)(c1cccc(C#N)c1)c1ccc(F)c(NC(=O)[C@@H]2C[C@@H](O)CN2C(=O)Nc2ccc(Cl)cc2)c1` (stereo partly drawn) [Compound 5d, (2S,4R)-N1-(4-chlorophenyl)-N2-(5-((−)-1-(3-cyanophenyl)-3-cyclopropyl-1-((R)-1,1-dimethylethylsulfinamido)propyl)-2-fluorophenyl)-4-hydroxypyrrolidine-1,2-dicarboxamide], the inhibition constant (Ki) is more than 100 nM.

For the molecule `N#Cc1cccc(C(N)(CCC2CC2)c2ccc(F)c(NC(=O)[C@@H]3C[C@@H](O)CN3C(=O)Nc3ccc(Cl)cc3)c2)c1` (stereo partly drawn) [Compound 5e, (2S,4R)-N2-(5-((−)-1-amino-1-(3-cyanophenyl)-3-cyclopropylpropyl)-2-fluorophenyl)-N1-(4-chlorophenyl)-4-hydroxypyrrolidine-1,2-dicarboxamide], the inhibitory constant (Ki) was more than 100 nM.

In turn, `CO[C@@H]1C[C@H](C(=O)Nc2cc(C(CCC3CC3)(N[S@+]([O-])C(C)(C)C)c3cccc(C#N)c3)ccc2F)N(C(=O)N(C)c2ccc(Cl)cc2)C1` (stereo partly drawn) [Compound 6c, (2R,4R)-N1-(4-chlorophenyl)-N2-(5-((−)-1-(3-cyanophenyl)-3-cyclopropyl-1-((R)-1,1-dimethylethylsulfinamido)propyl)-2-fluorophenyl)-4-methoxy-N1-methylpyrrolidine-1,2-dicarboxamide] gave a Ki of more than 100 nM.

In turn, `CO[C@@H]1C[C@@H](C(=O)Nc2cc(C(CCC3CC3)(N[S@+]([O-])C(C)(C)C)c3cccc(C#N)c3)ccc2F)N(C(=O)N(C)c2ccc(Cl)cc2)C1` (stereo partly drawn) [Compound 6d, (2S,4R)-N1-(4-chlorophenyl)-N2-(5-(1-(3-cyanophenyl)-3-cyclopropyl-1-((R)-1,1-dimethylethylsulfinamido)propyl)-2-fluorophenyl)-4-methoxy-N1-methylpyrrolidine-1,2-dicarboxamide] returned a Ki of more than 100 nM.

Molecule `CO[C@@H]1C[C@H](C(=O)Nc2cc(C(N)(CCC3CC3)c3cccc(C#N)c3)ccc2F)N(C(=O)N(C)c2ccc(Cl)cc2)C1` (stereo partly drawn) [Compound 6e, (2R,4R)-N2-(5-((−)-1-amino-1-(3-cyanophenyl)-3-cyclopropylpropyl)-2-fluorophenyl)-N1-(4-chlorophenyl)-4-methoxy-N1-methylpyrrolidine-1,2-dicarboxamide] yielded an inhibition constant Ki of more than 100 nM.

Regarding `CO[C@@H]1C[C@@H](C(=O)Nc2cc(C(N)(CCC3CC3)c3cccc(C#N)c3)ccc2F)N(C(=O)N(C)c2ccc(Cl)cc2)C1` (stereo partly drawn) [Compound 6f, (2S,4R)-N2-(5-((+)-1-amino-1-(3-cyanophenyl)-3-cyclopropylpropyl)-2-fluorophenyl)-N1-(4-chlorophenyl)-4-methoxy-N1-methylpyrrolidine-1,2-dicarboxamide], the Ki is more than 100 nM.

Consider `CC(C)(C)[S@@+]([O-])NC(CCC1CC1)(c1cccc(C#N)c1)c1ccc(F)c(NC(=O)[C@H]2CCCN2C(=O)Nc2ccc(Cl)cc2)c1` (stereo partly drawn) [Compound 7b, (R)-N1-(4-chlorophenyl)-N2-(5-((+)-1-(3-cyanophenyl)-3-cyclopropyl-1-((R)-1,1-dimethylethylsulfinamido)propyl)-2-fluorophenyl)pyrrolidine-1,2-dicarboxamide], for which the inhibition constant Ki is more than 100 nM.

Regarding `N#Cc1cccc(C(N)(CCC2CC2)c2ccc(F)c(NC(=O)[C@H]3CCCN3C(=O)Nc3ccc(Cl)cc3)c2)c1` (stereo partly drawn) [Compound 7c, (R)-N2-(5-((+)-1-amino-1-(3-cyanophenyl)-3-cyclopropylpropyl)-2-fluorophenyl)-N1-(4-chlorophenyl)pyrrolidine-1,2-dicarboxamide], the Ki was more than 100 nM.

Consider `CC(C)(C)[S@@+]([O-])NC(CCC1CC1)(c1cccc(C#N)c1)c1ccc(F)c(NC(=O)[C@@H]2CCCN2C(=O)Nc2ccc(Cl)cc2)c1` (stereo partly drawn) [Compound 8b, (S)-N1-(4-chlorophenyl)-N2-(5-((−)-1-(3-cyanophenyl)-3-cyclopropyl-1-((R)-1,1-dimethylethylsulfinamido)propyl)-2-fluorophenyl)pyrrolidine-1,2-dicarboxamide], for which the Ki was more than 100 nM.

In the case of `N#Cc1cccc(C(N)(CCC2CC2)c2ccc(F)c(NC(=O)[C@@H]3CCCN3C(=O)Nc3ccc(Cl)cc3)c2)c1` (stereo partly drawn) [Compound 8c, (S)-N2-(5-((−)-1-amino-1-(3-cyanophenyl)-3-cyclopropylpropyl)-2-fluorophenyl)-N1-(4-chlorophenyl)pyrrolidine-1,2-dicarboxamide], the Ki was more than 100 nM.

With `CC(C)(C)[S@@+]([O-])NC(CCC1CC1)(c1cccc(C#N)c1)c1ccc(F)c(NC(=O)[C@H]2C[C@H](O)CN2C(=O)Nc2ccc(Cl)cc2)c1` (stereo partly drawn) [Compound 9b, (2R,4S)-N1-(4-chlorophenyl)-N2-(5-((+)-1-(3-cyanophenyl)-3-cyclopropyl-1-((R)-1,1-dimethylethylsulfinamido)propyl)-2-fluorophenyl)-4-hydroxypyrrolidine-1,2-dicarboxamide], the Ki was more than 100 nM.

`N#Cc1cccc(C(N)(CCC2CC2)c2ccc(F)c(NC(=O)[C@H]3C[C@H](O)CN3C(=O)Nc3ccc(Cl)cc3)c2)c1` (stereo partly drawn) [Compound 9c, (2R,4S)-N2-(5-((+)-1-amino-1-(3-cyanophenyl)-3-cyclopropylpropyl)-2-fluorophenyl)-N1-(4-chlorophenyl)-4-hydroxypyrrolidine-1,2-dicarboxamide] had an inhibition constant Ki of more than 100 nM.

Molecule `CC(C)(C)[S@@+]([O-])NC(CCC1CC1)(c1cccc(C#N)c1)c1ccc(F)c(NC(=O)[C@@H]2C[C@H](O)CN2C(=O)Nc2ccc(Cl)cc2)c1` (stereo partly drawn) [Compound 10b, (2S,4S)-N1-(4-chlorophenyl)-N2-(5-((−)-1-(3-cyanophenyl)-3-cyclopropyl-1-((R)-1,1-dimethylethylsulfinamido)propyl)-2-fluorophenyl)-4-hydroxypyrrolidine-1,2-dicarboxamide] returned an inhibition constant (Ki) of more than 100 nM.

Take `N#Cc1cccc(C(N)(CCC2CC2)c2ccc(F)c(NC(=O)[C@@H]3C[C@H](O)CN3C(=O)Nc3ccc(Cl)cc3)c2)c1` (stereo partly drawn) [Compound 10c, (2S,4S)-N2-(5-((−)-1-amino-1-(3-cyanophenyl)-3-cyclopropylpropyl)-2-fluorophenyl)-N1-(4-chlorophenyl)-4-hydroxypyrrolidine-1,2-dicarboxamide]: the Ki is more than 100 nM.

With `CO[C@H]1C[C@@H](C(=O)Nc2cc(C(CCC3CC3)(N[S@+]([O-])C(C)(C)C)c3cccc(C#N)c3)ccc2F)N(C(=O)Nc2ccc(Cl)cc2)C1` (stereo partly drawn) [Compound 11d, (2S,4S)-N1-(4-chlorophenyl)-N2-(5-(1-(3-cyanophenyl)-3-cyclopropyl-1-((R)-1,1-dimethylethylsulfinamido)propyl)-2-fluorophenyl)-4-methoxypyrrolidine-1,2-dicarboxamide], the inhibitory constant (Ki) was more than 100 nM.

As to `CO[C@H]1C[C@@H](C(=O)Nc2cc(C(N)(CCC3CC3)c3cccc(C#N)c3)ccc2F)N(C(=O)Nc2ccc(Cl)cc2)C1` (stereo partly drawn) [Compound 11e, (2S,4S)-N2-(5-((−)-1-amino-1-(3-cyanophenyl)-3-cyclopropylpropyl)-2-fluorophenyl)-N1-(4-chlorophenyl)-4-methoxypyrrolidine-1,2-dicarboxamide], the inhibition constant Ki is more than 100 nM.

The molecule `CC(C)(C)[S@@+]([O-])NC(CCC1CC1)(c1cccc(C#N)c1)c1ccc(F)c(NC(=O)[C@H]2CCCN2C(=O)OCc2ccccc2)c1` (stereo partly drawn) [Compound 12b, (R)-benzyl 2-(5-((−)-1-(3-cyanophenyl)-3-cyclopropyl-1-((R)-1,1-dimethylethylsulfinamido)propyl)-2-fluorophenylcarbamoyl)pyrrolidine-1-carboxylate] registered an inhibition constant Ki of more than 100 nM.

`N#Cc1cccc(C(N)(CCC2CC2)c2ccc(F)c(NC(=O)[C@H]3CCCN3C(=O)Nc3ccc(Cl)cn3)c2)c1` (stereo partly drawn) [Compound 13e, (R)-N2-(5-((+)-1-amino-1-(3-cyanophenyl)-3-cyclopropylpropyl)-2-fluorophenyl)-N1-(5-chloropyridin-2-yl)pyrrolidine-1,2-dicarboxamide] displayed a Ki of more than 100 nM.

Source of the values: patent US10562850B2, “Human plasma kallikrein inhibitors” (priority 2015, dated 2020).
